Reference: patent US7786299B2, “Methods for treating diseases or conditions using dihydropteridinone compounds” (Boehringer Ingelheim Pharma GmbH & Co. KG, priority 2003, dated 2010)
pIC50: −log10 of the molar value.

Columns and labels:
HeLaS3 cells = test: Measurement of cytotoxicity on cultivated human tumour cells (AlamarBlue); format: cell-based; conditions: HeLa in Table 1; unit inferred
Protocol: The activity of the compounds according to the invention was determined in the cytotoxicity test on cultivated human tumour cells and/or in a FACS analysis, for example on HeLaS3 cells.
Measurement of Cytotoxicity on Cultivated Human Tumour Cells
To measure the cytotoxicity on cultivated human tumour cells, cells of the cervical cancer tumour cell line HeLaS3 (obtained from American Type Culture Collection (ATCC)) in Ham's F12 Medium (Life Technologies) and 10% foetal calf serum (Life Technologies) were cultivated and harvested in the logarithmic growth phase. Then the HeLaS3 cells were placed in 96-well plates (Costar) at a density of 1000 cells per well and incubated overnight in an incubator (at 37° C. and 5% CO2), while on each plate 6 wells were filled only with medium (3 wells as a control of the medium, 3 wells for incubation with reduced AlamarBlue). The active substances were added to the cells in various concentrations (dissolved in DMSO; final concentration: 1%) (in each case as a triple measurement). After 72 hours' incubation, 20 μl of AlamarBlue (AccuMed International) were added to each well, and the cells were incubated for a further 7 hours. As a control, 20 μl of reduced Alamar Blue (AlamarBlue reagent which had been autoclaved for 30 min) were added to 3 wells. After 7 h incubation the colour change of the AlamarBlue reagent in the individual wells was determined in a Perkin Elmer fluorescence spectrophotometer (excitation 530 nm, emission 590 nm, slits 15, integrate time 0.1). The amount of AlamarBlue reagent reacted represents the metabolic activity of the cells. The relative cell activity was calculated as a percentage of the control (HeLa S3 cells without inhibitor) and the active substance concentration which inhibits the cell activity by 50% (IC^50) was obtained. The values were calculated from the average of three individual measurements, correcting for the control value (medium control).

H460-VINC = test: Cytotoxicity on H460-VINC cells (Table 1; method not given); format: cell-based; conditions: H460-VINC of Table 1; unit inferred

Row | Compound | pIC50 (HeLaS3 cells) | pIC50 (H460-VINC)
1 | COc1cc(C(=O)NC(C)(C)CN2CCCC2)ccc1Nc1ncc2c(n1)N(C(C)C)C(C)C(=O)N2C (centres unmarked) [Example 56] | 7.19 | 6.49
2 | CCC1C(=O)N(C)c2cnc(Nc3ccc(C(=O)NCC(C)(C)CN(C)C)cc3OC)nc2N1C(C)C (centres unmarked) [Example 57] | 7.42 | 7.17
3 | CCC1C(=O)N(C)c2cnc(Nc3ccc(C(=O)NCC(C)(C)CN(C)C)cc3OC)nc2N1C1CCCC1 (centres unmarked) [Example 58] | 8.00 | 7.64
4 | COc1cc(C(=O)NCC(C)(C)CN(C)C)ccc1Nc1ncc2c(n1)N(C1CCCC1)C(C)C(=O)N2C (centres unmarked) [Example 60] | 7.39 | 6.72
5 | COc1cc(C(=O)NC2CCN(C)CC2)ccc1Nc1ncc2c(n1)N(CC(C)C)C(C)(C)C(=O)N2C [Example 61] | 7.19 | 5.98
6 | CCN(CC)CCNC(=O)c1ccc(Nc2ncc3c(n2)N(C2CCCC2)C(C)C(=O)N3C)c(OC)c1 (centres unmarked) [Example 62] | 7.24 | 6.27
7 | COc1cc(C(=O)NCCCN2CCOCC2)ccc1Nc1ncc2c(n1)N(C1CCCC1)C(C)C(=O)N2C (centres unmarked) [Example 63] | 7.09 | 6.69
8 | COc1cc(C(=O)NCCCN2CCCCC2)ccc1Nc1ncc2c(n1)N(C1CCCC1)C(C)C(=O)N2C (centres unmarked) [Example 64] | 7.19 | 6.05
9 | COc1cc(C(=O)NCCN2CCOCC2)ccc1Nc1ncc2c(n1)N(C1CCCC1)C(C)C(=O)N2C (centres unmarked) [Example 65] | 7.28 | 6.67
10 | COc1cc(C(=O)NCCN2CCCCC2)ccc1Nc1ncc2c(n1)N(C1CCCC1)C(C)C(=O)N2C (centres unmarked) [Example 66] | 7.19 | 6.60
11 | COc1cc(C(=O)NCCN(C)C)ccc1Nc1ncc2c(n1)N(C1CCCC1)C(C)C(=O)N2C (centres unmarked) [Example 67] | 7.28 | 6.25
12 | CC1C(=O)N(C)c2cnc(Nc3ccc(C(=O)NC4CC5CCC(C4)N5C)cc3)nc2N1C1CCCC1 (centres unmarked) [Example 68] | 7.04 | 5.91
13 | CC1C(=O)N(C)c2cnc(Nc3ccc(C(=O)NCCCN4CCOCC4)cc3)nc2N1C1CCCC1 (centres unmarked) [Example 69] | 7.26 | 6.20
14 | CC[C@@H]1C(=O)N(C)c2cnc(Nc3ccc(C(=O)NCCN4CCOCC4)cc3OC)nc2N1C(C)C [Example 71] | 7.46 | 6.64
15 | COc1cc(C(=O)NCCCN(C)C)ccc1Nc1ncc2c(n1)N(C1CCCC1)[C@H](C)C(=O)N2C [Example 75] | 7.34 | 6.25
16 | COc1cc(C(=O)NC2CCN(C)CC2)ccc1Nc1ncc2c(n1)N(C1CCCC1)[C@H](C)C(=O)N2C [Example 80] | 7.42 | 6.54
17 | Cc1cc(C(=O)NC2CCN(C)CC2)ccc1Nc1ncc2c(n1)N(C1CCCC1)[C@H](C)C(=O)N2C [Example 83] | 7.16 | 6.58
18 | C[C@@H]1C(=O)N(C)c2cnc(Nc3ccc(C(=O)NC4CCN(C)CC4)cc3)nc2N1C1CCCCC1 [Example 85] | 7.60 | 6.12
19 | COc1cc(C(=O)NCC(C)(C)CN(C)C)ccc1Nc1ncc2c(n1)N(C1CCCCC1)[C@H](C)C(=O)N2C [Example 86] | 7.42 | 7.62
20 | COc1cc(C(=O)NC(C)(C)CN2CCCC2)ccc1Nc1ncc2c(n1)N(C1CCCCC1)[C@H](C)C(=O)N2C [Example 87] | 7.54 | 7.18
21 | CC[C@@H]1C(=O)N(C)c2cnc(Nc3ccc(C(=O)NC4CCN(C)CC4)cc3OC)nc2N1c1ccccc1 [Example 88] | 7.70 | 5.99
22 | CC[C@@H]1C(=O)N(C)c2cnc(Nc3ccc(C(=O)NCC(C)(C)CN(C)C)cc3OC)nc2N1c1ccccc1 [Example 89] | 7.33 | 6.61
23 | CC[C@@H]1C(=O)N(C)c2cnc(Nc3ccc(C(=O)NC(C)(C)CN(C)C)cc3OC)nc2N1CCC(C)C [Example 90] | 7.49 | 6.86
24 | COc1cc(C(=O)NC2CC3CCC(C2)N3C)ccc1Nc1ncc2c(n1)N(C1CCCCC1)[C@H](C)C(=O)N2C (some centres unmarked) [Example 91] | 7.39 | 5.75
25 | Cc1cc(C(=O)NC2CCN(C)CC2)ccc1Nc1ncc2c(n1)N(C1CCCCC1)[C@H](C)C(=O)N2C [Example 94] | 7.74 | 6.29
26 | CC[C@@H]1C(=O)N(C)c2cnc(Nc3ccc(C(=O)NC4CCN(C)CC4)cc3OC)nc2N1C1CCCCC1 [Example 96] | 7.96 | 6.24

Row | Compound | pIC50 (HeLaS3 cells) | pIC50 (H460-VINC)
27 | CC[C@@H]1C(=O)N(C)c2cnc(Nc3ccc(C(=O)N[C@H]4CC[C@H](N5CCOCC5)CC4)cc3OC)nc2N1C1CCCCC1 [Example 97] | 7.49 | 7.18
28 | COc1cc(C(=O)N[C@H]2CC[C@H](N3CCCC3)CC2)ccc1Nc1ncc2c(n1)N(C1CCCCC1)[C@H](C)C(=O)N2C [Example 98] | 7.11 | 5.88
29 | COc1cc(C(=O)NC2CCC(N3CCN(CC4CC4)CC3)CC2)ccc1Nc1ncc2c(n1)N(C(C)C)C(C)C(=O)N2C (centres unmarked) [Example 112] | 7.12 | 6.46
30 | CCC1C(=O)N(C)c2cnc(Nc3ccc(C(=O)NC4CCC(N5CCN(C)CC5)CC4)cc3OC)nc2N1C(C)C (centres unmarked) [Example 113] | 7.43 | 6.16
31 | COc1cc(C(=O)NC2CCC(N(C)C)CC2)ccc1Nc1ncc2c(n1)N(CCC(C)C)C(C)C(=O)N2C (centres unmarked) [Example 114] | 7.19 | 6.12
32 | COc1cc(C(=O)NC2CCN(Cc3ccccc3)CC2)ccc1Nc1ncc2c(n1)N(C1CCCCC1)C(C)C(=O)N2C (centres unmarked) [Example 115] | 7.80 | 7.12
33 | CCC1C(=O)N(C)c2cnc(Nc3ccc(C(=O)NC4CCN(C5CCOCC5)CC4)cc3OC)nc2N1C1CCCC1 (centres unmarked) [Example 116] | 8.22 | 6.76
34 | COc1cc(C(=O)NC2CC(C)(C)N(C)C(C)(C)C2)ccc1Nc1ncc2c(n1)N(C1CCCCC1)C(C)C(=O)N2C (centres unmarked) [Example 117] | 8.00 | 6.43
35 | COc1cc(C(=O)NC2CCC(N(C)C)CC2)ccc1Nc1ncc2c(n1)N(C1CCCCC1)C(C)C(=O)N2C (centres unmarked) [Example 118] | 8.00 | 6.55
36 | CCN1CCC(NC(=O)c2ccc(Nc3ncc4c(n3)N(C3CCCCC3)C(C)C(=O)N4C)c(OC)c2)CC1 (centres unmarked) [Example 119] | 8.10 | 6.36
37 | COc1cc(C(=O)NC2CCN(C3CCOCC3)CC2)ccc1Nc1ncc2c(n1)N(C1CCCCC1)C(C)C(=O)N2C (centres unmarked) [Example 120] | 7.85 | 6.43
38 | COc1cc(C(=O)NC2CCC(N3CCCCC3)CC2)ccc1Nc1ncc2c(n1)N(C1CCCCC1)C(C)C(=O)N2C (centres unmarked) [Example 126] | 7.29 | 6.13
39 | CCC1C(=O)N(C)c2cnc(Nc3ccc(C(=O)NC4CCC(N5CCCCC5)CC4)cc3OC)nc2N1C1CCCC1 (centres unmarked) [Example 128] | 7.82 | 6.55
40 | CCC1C(=O)N(C)c2cnc(Nc3ccc(C(=O)NC4CCC(N5CCCCC5)CC4)cc3OC)nc2N1C(C)C (centres unmarked) [Example 129] | 7.46 | 6.19
41 | COc1cc(C(=O)NC2CCC(N3CCOCC3)CC2)ccc1Nc1ncc2c(n1)N(C1CCCCC1)C(C)C(=O)N2C (centres unmarked) [Example 130] | 7.82 | 7.04
42 | CCC1C(=O)N(C)c2cnc(Nc3ccc(C(=O)NC4CCC(N5CCOCC5)CC4)cc3OC)nc2N1C1CCCC1 (centres unmarked) [Example 131] | 7.64 | 7.00
43 | CCC1C(=O)N(C)c2cnc(Nc3ccc(C(=O)NC4CCC(N5CCOCC5)CC4)cc3OC)nc2N1C1CCCC1 (centres unmarked) [Example 133] | 7.96 | 7.12
44 | CCC1C(=O)N(C)c2cnc(Nc3ccc(C(=O)NC4CCC(N5CCCC5)CC4)cc3OC)nc2N1C(C)C (centres unmarked) [Example 135] | 7.92 | 6.16
45 | COc1cc(C(=O)NC2CCC(N3CCOCC3)CC2)ccc1Nc1ncc2c(n1)N(C1CCCCC1)C(C)C(=O)N2C (centres unmarked) [Example 137] | 7.41 | 6.83
46 | CCC1C(=O)N(C)c2cnc(Nc3ccc(C(=O)NC4CCC(N5CCCC5)CC4)cc3OC)nc2N1C1CCCC1 (centres unmarked) [Example 138] | 7.37 | 5.94
47 | COc1cc(C(=O)NC2CCN(C)CC2)ccc1Nc1ncc2c(n1)N(CC(C)(C)C)C(C)C(=O)N2C (centres unmarked) [Example 145] | 7.37 | ≤ 5.52
48 | COc1cc(C(=O)NC2CCN(C)CC2)ccc1Nc1ncc2c(n1)N(CCC(C)C)C(C)C(=O)N2C (centres unmarked) [Example 146] | 7.18 | 6.02
49 | CC[C@@H]1C(=O)N(C)c2cnc(Nc3ccc(C(=O)NCCCCN(CC)CC)cc3OC)nc2N1CCC(C)C [Example 153] | 7.14 | 5.58
50 | CC[C@@H]1C(=O)N(C)c2cnc(Nc3ccc(C(=O)NCCN4CCOCC4)cc3OC)nc2N1CCC(C)C [Example 156] | 7.32 | 6.32
51 | CC[C@@H]1C(=O)N(C)c2cnc(Nc3ccc(C(=O)NCCN(CC)CC)cc3OC)nc2N1CCC(C)C [Example 158] | 7.37 | 6.27
52 | CC[C@@H]1C(=O)N(C)c2cnc(Nc3ccc(C(=O)NCCN(C(C)C)C(C)C)cc3OC)nc2N1CCC(C)C [Example 160] | 7.43 | 6.14
